# Legend:
# Type in all cases: cell-based
# [1] = test system: stearoyl-CoA desaturase (SCD); test: SCD expression (RNAseq, real-time PCR) in MV4-11 cells
# Experimental: (§1) After treatment, cells were recovered, washed once in PBS, and flash frozen as cell pellets. Cell pellets were sent to Canopy Biosciences for RNA extraction and library preparation and sequencing. RNA was extracted using the Qiagen RNeasy Mini Kit according to manufacturer's instructions. A modified protocol was used to preserve miRNA species. Total RNA Seq libraries were prepared using 200 ng of total RNA and the NEBNext Ultra II Directional Library prep kit. rRNA depletion was performed using an RNase-H based method (New England Biolabs, Ipswich, MA). MCL1 RNA levels in other cell lines were quantified by RNASeq using standard methods.
# (§2) Libraries were multiplexed and sequenced using Illumina HiSeq. All gene counts were then imported into the R/Bioconductor package EdgeR and TMM normalization size factors were calculated to adjust for samples for differences in library size. Ribosomal genes and genes not expressed in the smallest group size minus one samples greater than one count-per-million were excluded from further analysis. Differential expression analysis was then performed to analyze for differences between conditions and the results were filtered for only those genes with Benjamini-Hochberg false-discovery rate adjusted p-values less than or equal to 0.05. Global perturbations in known Gene Ontology (GO) terms and KEGG pathways were detected using the R/Bioconductor package GAGE to test for changes in expression of the reported log 2 fold-changes reported by Limma in each term versus the background log 2 fold-changes of all genes found outside the respective term. […]
# At this time, cells were recovered and RNA was extracted using Qiagen RNeasy kit according to manufacturer's instructions. […] Validated Taqman probes and Taqman Fast Advanced Master Mix was used with Viia 7 Real-Time PCR System (Invitrogen/ThermoFisher Scientific, Waltham, MA) to quantify transcripts of ATF3, SCD, and 18S mRNA.
# [2] = test system: BaF-FLT3(WT); test: Cell viability assay (Cell Titer-Glo), BaF3 cells expressing FLT3; conditions: Mus musculus
# [3] = test system: activating transcription factor 3 (ATF3); test: ATF3 expression (RNAseq, real-time PCR) in MV4-11 cells
# Experimental: as §1
# as §2, with “Differential expression analysis was then performed to analyze for differences between conditions and the results were filtered for only those genes with Benjamini-Hochberg false-discovery rate adjusted p-values less than or equal to 0.05.” left out
# [4] = test system: MV4-11 cells; test: RNASeq analysis of MV4-11 cells; conditions: MV4-11, 1 μM 5-azacytidine
# Experimental: as §1
# Libraries were multiplexed and sequenced using Illumina HiSeq. All gene counts were then imported into the R/Bioconductor package EdgeR and TMM normalization size factors were calculated to adjust for samples for differences in library size. Ribosomal genes and genes not expressed in the smallest group size minus one samples greater than one count-per-million were excluded from further analysis. Differential expression analysis was then performed to analyze for differences between conditions and the results were filtered for only those genes with Benjamini-Hochberg false-discovery rate adjusted p-values less than or equal to 0.05. Global perturbations in known Gene Ontology (GO) terms and KEGG pathways were detected using the R/Bioconductor package GAGE to test for changes in expression of the reported log 2 fold-changes reported by Limma in each term versus the background log 2 fold-changes of all genes found outside the respective term. The R/Bioconductor package heatmap and Pathview was used to display heatmaps or annotated KEGG graphs across groups of samples for each GO term or KEGG pathway (respectively) with a Benjamini-Hochberg false-discovery rate adjusted p-value less than or equal to 0.05. To find differentially expressed genes, the raw counts were variance stabilized with the R/Bioconductor package DESeq2.
# [5] = test system: BaF-FLT3(D835Y); test: Cell viability assay (Cell Titer-Glo), BaF3 cells expressing FLT3; conditions: Mus musculus
# [6] = test system: BaF-FLT3-ITD; test: as above; conditions: Mus musculus
compound,measurement,setting,value
"Nc1ncn([C@@H]2O[C@H](CO)[C@@H](O)[C@H]2O)c(=O)n1 [5-azacytidine, 4-amino-1-B-D-ribofuranosyl-1,3,5-triazin-2(1H)-one]",SCD expression (real-time PCR),"[1]; MV4-11, 3 μM 5-azacytidine",decreased rapidly within 24 hours
same,SCD expression (real-time PCR),"[1]; MV4-11, low concentrations of 5-azacytidine, 24 hours",not affected
same,SCD expression decrease,"[1]; RNAseq, MV4-11, 1 μM, 48 hours",2.5 fold
same,EC50,[2],0.189 µM
same,ATF3 expression (real-time PCR),"[3]; MV4-11, 0.3 μM 5-azacytidine, 24 or 48 hours",not sufficient to induce ATF3 expression
same,ATF3 expression increase,"[3]; RNAseq, MV4-11, 1 μM, 48 hours",two-fold
same,"Mean logFC, Kegg pathway Antigen processing and presentation",[4]; 24 h,−3.39
same,"Mean logFC, Kegg pathway Biosynthesis of unsaturated fatty acids",[4]; 24 h,−3.26
same,"Mean logFC, Kegg pathway Carbon metabolism",[4]; 24 h,−3.35
same,"Mean logFC, Kegg pathway Cardiac muscle contraction",[4]; 24 h,−2.61
same,"Mean logFC, Kegg pathway Cell cycle",[4]; 24 h,−5.75
same,"Mean logFC, Kegg pathway Cellular senescence",[4]; 24 h,−2.69
same,"Mean logFC, Kegg pathway DNA replication",[4]; 24 h,−4.45
same,"Mean logFC, Kegg pathway Fatty acid elongation",[4]; 24 h,−2.87
same,"Mean logFC, Kegg pathway Fatty acid metabolism",[4]; 24 h,−3.43
same,"Mean logFC, Kegg pathway Lysasome",[4]; 24 h,−2.82
same,"Mean logFC, Kegg pathway Metabolic pathways",[4]; 24 h,−5.79
same,"Mean logFC, Kegg pathway Mismatch repair",[4]; 24 h,−2.98
same,"Mean logFC, Kegg pathway Necroptosis",[4]; 24 h,−3.78
same,"Mean logFC, Kegg pathway Oxidative phosphorylation",[4]; 24 h,−7.32
same,"Mean logFC, Kegg pathway Phagosome",[4]; 24 h,−4.13
same,"Mean logFC, Kegg pathway Proteasome",[4]; 24 h,−4.41
same,"Mean logFC, Kegg pathway Protein export",[4]; 24 h,−3.19
same,"Mean logFC, Kegg pathway Protein processing in endoplasmic reticulation",[4]; 24 h,−4.96
same,"Mean logFC, Kegg pathway RNA transport",[4]; 24 h,−3.08
same,"Mean logFC, Kegg pathway Regulation of actin cytoskeleton",[4]; 24 h,−2.46
same,"Mean logFC, Kegg pathway Ribosome",[4]; 24 h,−10.50
same,"Mean logFC, Kegg pathway Spliceasome",[4]; 24 h,−4.10
same,"Mean logFC, Kegg pathway Taste transduction",[4]; 24 h,−2.44
same,"Mean logFC, Kegg pathway Terpenoid backbone biosynthesis",[4]; 24 h,−2.48
same,"Mean logFC, Kegg pathway p53 signaling pathway",[4]; 24 h,−2.42
same,differentially expressed genes,[4]; 24 hours,133
same,KEGG pathways regulated,[4]; 48 hours,No significant differences
same,differentially expressed genes,[4]; 48 hours,226
same,EC50,[5],0.456 µM
same,EC50,[6],0.598 µM
